Experimental data taken from publication PMC6647725 (Analytical and Bioanalytical Chemistry, 2019).

Legend:
[1] = Stability in mouse small intestine homogenate and its final extract; format: in vitro ADME; conditions: nominal 50 ng/mL
Protocol: (§1) After weighing the complete organ, a volume of 3 mL of this solution was added to the liver and small intestine, 2 mL to the kidneys, and 1 mL to the brain and spleen. The tissue/BSA ratio (w/v) of the homogenates were approximately 0.4:1 for the brain and liver, 0.1:1 for the spleen, 0.2:1 for the kidneys, and 0.25:1 for the small intestine. All samples were shaken in the Fast Prep at 6.0 m/s during 60 s. The stability of each analyte was investigated in all the previously mentioned matrices. For plasma (both human and mouse), the stability was determined in triplicate at two concentration levels, QC L and QC H, whereas for mouse tissue homogenates only at QC M (except the brain in one stability condition). For all matrices, the following stability conditions were assessed: short term at room temperature (RT), long term at − 20 °C, and after 3 freeze-thaw (F/T) cycles at − 20 °C/RT. Furthermore, for tissue homogenates, the short-term stability in ice-water, long-term stability at − 70 °C, and F/T stability at − 70 °C/ice-water were also evaluated. Additionally, the stability in the final extract was tested. For this, the QC L and QC H final extracts from the plasma, brain, and spleen and the QC M final extract from the liver, kidney and small intestine were stored at 4–8 °C up to 3 days. Lastly, the stability of the stock solutions at − 20 °C was investigated.

[2] = Plasma pharmacokinetics in mice after oral administration; format: in vivo, mouse (FVB)
Protocol: This method was developed to support pharmacokinetic and tissue distribution studies of the CDK4/6 inhibitors in mice (FVB background). These studies were done separately for each drug. Animal housing and studies were conducted according to institutional guidelines complying with Dutch and European Union legislation (approval number from The Dutch Central Animal Testing Committee: AVD301002016595). […] Approximately 50 μL of blood was collected from the tip of the tail at several time points, except at the last one, when 500–1000 μL of blood was collected by cardiac puncture under isoflurane anesthesia. […] Mice were sacrificed by cervical dislocation and the organs were collected and weighed. Plasma was obtained using sodium heparin as anticoagulant after centrifugation at 9000g, 4 °C, for 6 min. When necessary, 10 μL of mouse plasma was diluted with 40 μL of human plasma. The tissue homogenates were prepared according to the procedure described in the “Tissue homogenate preparation” section. Plasma and tissue homogenate samples were stored at − 20 and − 70 °C, respectively, until the LC-MS/MS analysis was performed.

[3] = Stability in mouse spleen homogenate and its final extract; format: in vitro ADME
Protocol: as §1

[4] = Stability in mouse kidney homogenate and its final extract; format: in vitro ADME; conditions: nominal 50 ng/mL
Protocol: as §1

CDK4 = conditions: cited from earlier work
[5] = Stability in mouse brain homogenate and its final extract; format: in vitro ADME
Protocol: as §1

[6] = Stability in human plasma and its final extract (LC-MS/MS); format: in vitro ADME; conditions: nominal 5 ng/mL
Protocol: (§2) 50 μL of the sample (either from a preclinical study, calibration standard, or QC) was mixed with 25 μL of IS-working solution, followed by 150 μL of ACN for protein precipitation. Samples were vortex mixed and centrifuged at 23,100g for 10 min at 20 °C. An aliquot of 80 μL of supernatant was diluted with 120 μL of 10 mM ammonium bicarbonate in water:MeOH (1:1 v/v). The final extract was transferred to a glass vial with insert, and 10 μL was injected to the LC-MS/MS system for analysis.
(§3) The stability of each analyte was investigated in all the previously mentioned matrices. For plasma (both human and mouse), the stability was determined in triplicate at two concentration levels, QC L and QC H, whereas for mouse tissue homogenates only at QC M (except the brain in one stability condition). For all matrices, the following stability conditions were assessed: short term at room temperature (RT), long term at − 20 °C, and after 3 freeze-thaw (F/T) cycles at − 20 °C/RT. Furthermore, for tissue homogenates, the short-term stability in ice-water, long-term stability at − 70 °C, and F/T stability at − 70 °C/ice-water were also evaluated. Additionally, the stability in the final extract was tested. […] Lastly, the stability of the stock solutions at − 20 °C was investigated.

[7] = Stability in mouse plasma and its final extract (LC-MS/MS); format: in vitro ADME; conditions: mouse plasma; − 20 °C, 3 m; nominal 150 ng/mL
Protocol: as §2, §3

[8] = small intestine homogenate, 3 F/T (− 70 °C, ice/water bath)
[9] = small intestine homogenate, RT, 3 h
[10] = final extract (listed under spleen homogenate), 4–8 °C, 3 d, nominal 5 ng/mL
[11] = kidney homogenate, LT − 70 °C, 1 m
[12] = brain homogenate, 3 F/T (− 70 °C, ice/water bath), nominal 50 ng/mL
[13] = brain homogenate, LT − 70 °C, 1 m, nominal 50 ng/mL
[14] = final extract (listed under brain homogenate), 4–8 °C, 3 d, nominal 5 ng/mL

Mean concentration ([1]; final extract (listed under small intestine homogenate), 4–8 °C, 2 d): […] | Mean concentration ([1]; small intestine homogenate, 3 F/T (RT, − 20 °C)): 45.6 ng/mL | Accuracy (% Bias) [1, 8]: […] | Mean concentration [1, 8]: […] | Mean concentration ([1]; small intestine homogenate, LT − 20 °C, 1 m): 38.9 ng/mL | Mean concentration ([1]; small intestine homogenate, LT − 70 °C, 1 m): 48.9 ng/mL | Accuracy (% Bias) [1, 9]: 1.3% | Mean concentration [1, 9]: 50.6 ng/mL | Mean concentration ([1]; small intestine homogenate, RT, 1 d): […] | Mean concentration ([1]; small intestine homogenate, ice/water bath, 3 h): 48.4 ng/mL | concentration at 8 h ([2]; female, FVB, po, mouse plasma, 20 mg/kg orally administered, t = 8 h, read-out: plasma concentration of representative sample): 625 ng/mL | Cmax ([2]; mouse, female FVB mice, 20 mg/kg oral, plasma, n = 6): 1040 ± 352 ng/mL | AUC(0-t) ([2]; mouse, female FVB mice, 20 mg/kg oral, plasma, n = 6, read-out: AUC0–24h): 6880 ± 1220 ng·h/mL | Tmax ([2]; mouse, female FVB mice, 20 mg/kg oral, plasma, n = 6, read-out: Tmax range): […] | Accuracy (% Bias) [3, 10]: 3.2% | Mean concentration [3, 10]: […] | Mean concentration ([3]; spleen homogenate, 3 F/T (RT, − 20 °C), nominal 50 ng/mL): 42.9 ng/mL | Mean concentration ([3]; spleen homogenate, 3 F/T (− 70 °C, ice/water bath), nominal 50 ng/mL): […] | Mean concentration ([3]; spleen homogenate, LT − 20 °C, 1 m, nominal 50 ng/mL): 40.5 ng/mL | Mean concentration ([3]; spleen homogenate, LT − 70 °C, 1 m, nominal 50 ng/mL): 45.0 ng/mL | Mean concentration ([3]; spleen homogenate, RT, 3 h, nominal 50 ng/mL): […] | Mean concentration ([3]; spleen homogenate, RT, 1 d, nominal 50 ng/mL): 21.8 ng/mL | Mean concentration ([3]; spleen homogenate, ice/water bath, 3 h, nominal 50 ng/mL): 46.2 ng/mL | Mean concentration ([4]; final extract (listed under kidney homogenate), 4–8 °C, 2 d): […] | Mean concentration ([4]; kidney homogenate, 3 F/T (RT, − 20 °C)): 15.7 ng/mL | Mean concentration ([4]; kidney homogenate, 3 F/T (− 70 °C, ice/water bath)): 49.1 ng/mL | Mean concentration ([4]; kidney homogenate, LT − 20 °C, 1 m): 31.5 ng/mL | Accuracy (% Bias) [4, 11]: […] | Mean concentration [4, 11]: […] | Mean concentration ([4]; kidney homogenate, RT, 3 h): […] | Mean concentration ([4]; kidney homogenate, RT, 1 d): 0.91 ng/mL | Mean concentration ([4]; kidney homogenate, ice/water bath, 3 h): 42.7 ng/mL | Mean concentration ([5]; brain homogenate, 3 F/T (RT, − 20 °C), nominal 50 ng/mL): 48.8 ng/mL | Accuracy (% Bias) [5, 12]: […] | Mean concentration [5, 12]: […] | Mean concentration ([5]; brain homogenate, LT − 20 °C, 1 m, nominal 50 ng/mL): 49.1 ng/mL | Accuracy (% Bias) [5, 13]: 4.6% | Mean concentration [5, 13]: 52.3 ng/mL | Mean concentration ([5]; brain homogenate, RT, 1 d, nominal 5 ng/mL): […] | Mean concentration ([5]; brain homogenate, RT, 1 d, nominal 150 ng/mL): 129.7 ng/mL | Mean concentration ([5]; brain homogenate, ice/water bath, 3 h, nominal 50 ng/mL): 49.4 ng/mL | Accuracy (% Bias) [5, 14]: 2.7% | Mean concentration [5, 14]: […] | Accuracy (% Bias) ([5]; final extract (listed under brain homogenate), 4–8 °C, 3 d, nominal 150 ng/mL): 3.1% | Mean concentration ([6]; final extract (listed under human plasma), 4–8 °C, 4 d): […] | Mean concentration ([6]; human plasma, 2 F/T (− 20 °C/RT)): 4.7 ng/mL | Mean concentration ([6]; human plasma, 3 F/T (− 20 °C/RT)): […] | Mean concentration ([6]; human plasma, RT, 3 d): […] | Mean concentration ([6]; human plasma, − 20 °C, 12 m): […] | Accuracy (% Bias) [7]: 4.7%
Structure (SMILES): CN(C)C(=O)c1cc2cnc(Nc3ccc(N4CCNCC4)cn3)nc2n1C1CCCC1 [Ribociclib]
